From patent US11518758B2, “Heteroarylaminopyrimidine amide autophagy inhibitors and methods of use thereof” (Deciphera Pharmaceuticals, LLC, priority 2019, dated 2022)

How the values were obtained:
ULK1 kinase = target: T1, ULK1 kinase (Homo sapiens, UniProt O75385); test: Biochemical assay for ULK1.2 (coupled pyruvate kinase/lactate dehydrogenase assay); conditions: 19 nM ULK1 (Eurofins), myelin basic protein, 1 mM ATP
T1 construct: purchased Eurofins 14-959
T1 sequence (O75385 with tags, fused parts or gaps): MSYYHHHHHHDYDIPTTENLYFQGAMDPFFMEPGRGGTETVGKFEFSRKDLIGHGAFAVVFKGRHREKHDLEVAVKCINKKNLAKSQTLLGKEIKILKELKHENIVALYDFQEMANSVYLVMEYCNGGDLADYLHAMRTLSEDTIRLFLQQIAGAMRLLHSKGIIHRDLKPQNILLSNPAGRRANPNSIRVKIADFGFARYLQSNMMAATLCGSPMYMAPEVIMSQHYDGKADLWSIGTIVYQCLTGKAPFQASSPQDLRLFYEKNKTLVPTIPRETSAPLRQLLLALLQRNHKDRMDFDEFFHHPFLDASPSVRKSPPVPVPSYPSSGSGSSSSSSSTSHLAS
Protocol: Example 174. Biochemical Assay for ULK1.2
Activity of ULK1 kinase was determined spectroscopically using a coupled pyruvate kinase/lactate dehydrogenase assay that continuously monitors the ATP hydrolysis-dependent oxidation of NADH (e.g., Schindler et al. Science (2000) 289: 1938-1942). Assays were conducted in 384-well plates (100 uL final volume) using 19 nM ULK1 (Eurofins CAT #14-959), 0.25 mg/mL myelin basic protein, 1.5 units pyruvate kinase, 2.1 units lactate dehydrogenase, 1 mM phosphoenol pyruvate, 0.28 mM NADH and 1 mM ATP in assay buffer (100 mM Tris, pH 7.5, 15 mM MgCl2, 0.5 mM DTT, 0.1% octyl-glucoside, 0.002% (w/v) BSA, and 0.002% Triton X-100). Inhibition of ULK1 was measured by adding serial diluted test compound (final assay concentration of 1% DMSO). A decrease in absorption at 340 nm was monitored continuously for 6 hours at 30° C. on a multi-mode microplate reader (BioTek). The reaction rate was calculated using the 2-3 h time frame. The reaction rate at each concentration of compound was converted to percent inhibition using controls (i.e. reaction with no test compound and reaction with a known inhibitor) and IC50 values were calculated by fitting a four-parameter sigmoidal curve to the data using Prism (GraphPad software).

LRRK2 kinase = target: T2, LRRK2 kinase (Homo sapiens, UniProt Q5S007); test: Biochemical assay for LRRK2 (coupled pyruvate kinase/lactate dehydrogenase assay); conditions: 26.4 nM LRRK2 (residues 970-2528), 0.1 mM peptide substrate, 1 mM ATP
T2 construct: purchased Thermo Fisher
Protocol: Example 182. Biochemical Assay for LRRK2 (SEQ. ID NO. 4)
Activity of LRRK2 kinase was determined spectroscopically using a coupled pyruvate kinase/lactate dehydrogenase assay that continuously monitors the ATP hydrolysis-dependent oxidation of NADH (e.g., Schindler et al. Science (2000) 289: 1938-1942). Assays were conducted in 384-well plates (100 uL final volume) using 26.4 nM LRRK2 (Thermo Fisher), 0.1 mM peptide substrate (RLGRDKYKTLRQIRQ (SEQ ID NO: 6)), 1.5 units pyruvate kinase, 2.1 units lactate dehydrogenase, 1 mM phosphoenol pyruvate, 0.28 mM NADH and 1 mM ATP in assay buffer (100 mM Tris, pH 7.5, 15 mM MgCl2, 0.5 mM DTT, 0.004% (w/v) BSA, and 0.004% Triton X-100). Inhibition of LRRK2 was measured by adding serial diluted test compound (final assay concentration of 1% DMSO). A decrease in absorption at 340 nm was monitored continuously for 6 hours at 30° C. on a multi-mode microplate reader (BioTek). The reaction rate was calculated using the 2-3 h time frame. The reaction rate at each concentration of compound was converted to percent inhibition using controls (i.e. reaction with no test compound and reaction with a known inhibitor) and IC50 values were calculated using software routines in Prism (GraphPad software).

[1] = test system: phospho-Serine 318 ATG13 (pATG13), ULK kinase substrate, in A549 (KRAS mutant) cells; test: pATG13 levels of mutant KRas A549 cells after treatment with ULK inhibitors in combination with trametinib (ELISA); assay type: cell-based, human; conditions: with 250 nM trametinib
Protocol: Example 177. Cellular Inhibition of ULK Kinase Substrate ATG13 Protein pATG13 Levels of Mutant KRas A549 Cells after Treatment with ULK Inhibitors in Combination with Trametinib
A549 (KRAS mutant) human lung cancer cells (6,000 cells/well) were added to a 384-well tissue-culture treated plate in 50 μL of pre-warmed DMEM medium supplemented with 10% characterized fetal bovine serum (Invitrogen, Carlsbad, Calif.), 100 units/mL penicillin G, and 100 μg/mL streptomycin and allowed to grow overnight at 37° C., 5% CO2, and 95% humidity. The following day, 10 μL of media containing trametinib or DMSO as a control was added to wells. The final concentration of trametinib in wells was 250 nM. A dose response of a test compound (0.6 μL per well) was added. DMSO (0.6 μL) was added to control wells. The plate was briefly shaken to mix wells and then incubated at 37° C. overnight. The next day, the media was aspirated and cells were washed with Dulbecco's Phosphate Buffered Saline (Gibco). Cells were lysed using MPER lysis buffer (Pierce, Rockford, Ill.) containing Halt Phosphatase and Protease Inhibitors (Pierce, Rockford, Ill.) and Phosphatase inhibitor cocktail 2 (Sigma, St. Louis, Mo.) at 4° C. for 10 minutes with shaking.
Cellular levels of phospho-Serine 318 ATG13 (pATG13) were measured via an ELISA method. Total ATG13 Antibody (Cell Signaling Cat #13273) was used to coat the wells. The plate was incubated at 4° C. overnight and washed with ELISA wash buffer (Biolegend Cat #421601). The wells were then blocked with assay diluent (Biolegend Cat #421203) for 1 hour at room temperature. Plate wells were washed with ELISA wash buffer. Cell lysate was added to wells and incubated at room temperature for 2 hours. Plate wells were washed with ELISA wash buffer. Biotinylated pS318-ATG13 antibody (Rockland Immunochemicals Cat #600-401-C49) was diluted in assay diluent and added to each well and incubated at room temperature for 1 hour. Plate wells were washed with ELISA wash buffer. Streptavidin linked to horseradish peroxidase (Thermo Fisher Cat #21140) was diluted in assay diluent and added to each well and incubated at room temperature for 1 hour. Plate wells were washed with ELISA wash buffer. High sensitivity TMB substrate (Biolegend Cat #421101) was added to each well and incubated at room temperature for 20 minutes. The reaction was stopped with 2N Sulfuric Acid. The plate was analyzed at on a plate reader measuring absorbance at 450 nm and 540 nm (background). Signal was calculated by first subtracting the background absorbance at 540 nm from the absorbance at 450 nm for each well. Next, the background corrected absorbance at 450 nm from blank wells was subtracted from test wells. Data was compared to control wells to determine % ATG13 phosphorylation. GraphPad Prism was used to calculate IC50 values.

T2 sequence (Q5S007 with tags, fused parts or gaps): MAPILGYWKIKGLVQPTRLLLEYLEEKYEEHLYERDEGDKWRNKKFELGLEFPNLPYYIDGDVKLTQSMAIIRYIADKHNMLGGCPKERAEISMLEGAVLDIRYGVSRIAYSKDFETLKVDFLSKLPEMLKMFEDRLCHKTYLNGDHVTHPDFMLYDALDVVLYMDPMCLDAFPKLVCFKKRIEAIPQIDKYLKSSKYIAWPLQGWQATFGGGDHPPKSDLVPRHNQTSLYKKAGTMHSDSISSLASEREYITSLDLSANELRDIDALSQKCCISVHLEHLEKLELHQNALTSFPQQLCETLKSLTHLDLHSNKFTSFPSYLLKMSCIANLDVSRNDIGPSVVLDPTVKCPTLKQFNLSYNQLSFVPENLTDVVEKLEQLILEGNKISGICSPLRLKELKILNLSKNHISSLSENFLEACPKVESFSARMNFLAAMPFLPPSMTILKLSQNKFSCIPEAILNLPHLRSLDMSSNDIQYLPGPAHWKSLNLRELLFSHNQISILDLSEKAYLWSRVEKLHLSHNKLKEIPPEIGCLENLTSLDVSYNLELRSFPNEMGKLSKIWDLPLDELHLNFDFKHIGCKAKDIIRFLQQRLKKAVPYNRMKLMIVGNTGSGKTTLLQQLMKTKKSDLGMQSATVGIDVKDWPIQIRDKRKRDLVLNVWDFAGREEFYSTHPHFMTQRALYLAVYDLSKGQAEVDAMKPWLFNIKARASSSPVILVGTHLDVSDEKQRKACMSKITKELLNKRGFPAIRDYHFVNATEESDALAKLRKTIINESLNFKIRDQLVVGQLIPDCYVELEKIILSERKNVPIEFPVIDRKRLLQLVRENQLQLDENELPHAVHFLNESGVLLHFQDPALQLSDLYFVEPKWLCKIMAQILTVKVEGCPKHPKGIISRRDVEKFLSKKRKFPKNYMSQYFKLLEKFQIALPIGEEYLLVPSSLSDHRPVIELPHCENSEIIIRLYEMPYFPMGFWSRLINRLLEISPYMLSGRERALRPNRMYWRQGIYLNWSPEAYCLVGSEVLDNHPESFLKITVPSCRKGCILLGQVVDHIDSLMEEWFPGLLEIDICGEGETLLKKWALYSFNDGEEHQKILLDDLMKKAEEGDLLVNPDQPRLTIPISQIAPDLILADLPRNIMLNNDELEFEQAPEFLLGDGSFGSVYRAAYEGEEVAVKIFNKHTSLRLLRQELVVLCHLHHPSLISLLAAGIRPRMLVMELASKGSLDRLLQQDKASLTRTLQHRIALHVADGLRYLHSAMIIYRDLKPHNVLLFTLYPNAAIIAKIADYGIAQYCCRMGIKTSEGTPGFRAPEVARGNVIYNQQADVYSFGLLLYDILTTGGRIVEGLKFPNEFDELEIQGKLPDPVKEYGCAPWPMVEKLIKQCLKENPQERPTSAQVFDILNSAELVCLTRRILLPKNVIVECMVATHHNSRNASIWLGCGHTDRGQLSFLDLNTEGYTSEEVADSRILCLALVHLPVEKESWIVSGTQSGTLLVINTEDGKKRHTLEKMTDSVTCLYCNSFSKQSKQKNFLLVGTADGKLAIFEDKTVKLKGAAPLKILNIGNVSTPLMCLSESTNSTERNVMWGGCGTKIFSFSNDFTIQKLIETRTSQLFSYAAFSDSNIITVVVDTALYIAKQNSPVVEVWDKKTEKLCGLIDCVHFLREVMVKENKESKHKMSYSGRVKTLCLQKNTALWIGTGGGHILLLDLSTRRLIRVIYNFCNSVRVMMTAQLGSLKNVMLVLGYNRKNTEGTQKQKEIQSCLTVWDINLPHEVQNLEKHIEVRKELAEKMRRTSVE

| SMILES | IC50 (ULK1 kinase) [nM] | IC50 (LRRK2 kinase) [nM] | IC50 [1] [nM] |
| --- | --- | --- | --- |
| CN1CCC(n2cc(Nc3ncc(C4CC4)c(NCCCN4CCCC4=O)n3)cn2)CC1 [Example 84] | 100 to 500 | > 600 |  |
| Cc1nn(CCCN2CCOCC2)cc1Nc1ncc(Cl)c(NCCCN2CCOCCC2=O)n1 [Example 135] | > 500 | > 600 |  |
| Cc1nn(C2CCN(C3COC3)CC2)cc1Nc1ncc(C(F)(F)F)c(NCCCN2CCCCC2=O)n1 [Example 33] | 100 to 500 | 300 to 600 |  |
| Cc1nn(CCCN2CCCC2)cc1Nc1ncc(C(F)(F)F)c(NCCCN2CCCCC2=O)n1 [Example 20] | 25 to 100 |  | 100 to 300 |
| Cc1nn(C2CCN(C(C)C)CC2)cc1Nc1ncc(Cl)c(NCCCN2CCCOCC2=O)n1 [Example 110] | > 500 | 100 to 300 |  |
| Cc1nn(CCN2CCOCC2)cc1Nc1ncc(C(F)(F)F)c(NCCCN2CCCCCC2=O)n1 [Example 98] | 100 to 500 | 100 to 300 |  |
| CCC(C)N1CCC(n2cc(Nc3ncc(C(F)(F)F)c(NCCCN4CCCCCC4=O)n3)c(C)n2)CC1 (stereo not shown) [Example 94] | 1 to 25 |  | 10 to 100 |
| CCN1CC[C@H](n2cc(Nc3ncc(C(F)(F)F)c(NCCCN4CCCC4=O)n3)c(C)n2)C1 [Example 168] | 100 to 500 | > 600 |  |
| CC1CCC(=O)N1CCCNc1nc(Nc2cnn(C3CCN(C4CC4)CC3)c2)ncc1Cl (stereo not shown) [Example 150] | 100 to 500 | 100 to 300 |  |
| CC1(C)CCN(CCCNc2nc(Nc3cnn(C4CCN(C5CC5)CC4)c3)ncc2Br)C1=O [Example 153] | 100 to 500 | 300 to 600 |  |
| CCc1nn(C2CCNCC2)cc1Nc1ncc(Cl)c(NCCCN2CCCCC2=O)n1 [Example 39] | 100 to 500 | > 600 |  |
| CCN1CCC(n2cc(Nc3ncc(Cl)c(NCCCN4CCCCC4=O)n3)c(C)n2)CC1 [Example 58] | 100 to 500 |  | 300 to 600 |
| CCN1CCC(n2cc(Nc3ncc(C(F)(F)F)c(NCCCN4CCCCCC4=O)n3)c(C)n2)CC1 [Example 90, 1-(3-((2-((1-(1-ethylpiperidin-4-yl)-3-methyl-1H-pyrazol-4-yl)amino)-5-(trifluoromethyl)pyrimidin-4-yl)amino)propyl)azepan-2-one] | 1 to 25 |  | 10 to 100 |
| Cc1nn(CCN2CCOCC2)cc1Nc1ncc(C(F)(F)F)c(NCCCN2CCCCC2=O)n1 [Example 29] | > 500 | > 600 |  |
| Cc1nn(CCN2CCCC2)cc1Nc1ncc(C(F)(F)F)c(NCCCN2CCCCC2=O)n1 [Example 45] | 100 to 500 | > 600 |  |
| Cc1nn(C2CCN(C)CC2)cc1Nc1ncc(Cl)c(NCCCN2CCCCC2=O)n1 [Example 56] | 100 to 500 | > 600 |  |
| CC(C)CN1CC(n2cc(Nc3ncc(Br)c(NCCCN4CCCC4=O)n3)cn2)C1 [Example 165] | 100 to 500 | 300 to 600 |  |
| Cc1nn(CCN2CCCC2)cc1Nc1ncc(Br)c(NCCCN2CCCCC2=O)n1 [Example 62] | 100 to 500 | > 600 |  |

| SMILES | IC50 (ULK1 kinase) [nM] | IC50 (LRRK2 kinase) [nM] | IC50 [1] [nM] |
| --- | --- | --- | --- |
| C[C@@H](CCNc1nc(Nc2cnn(C3CCN(C4CC4)CC3)c2)ncc1Cl)N1CCCC1=O [Example 156] | > 500 | 300 to 600 |  |
| Cc1nn([C@@H]2CCNC2)cc1Nc1ncc(Br)c(NCCCN2CCCC2=O)n1 [Example 164] | 100 to 500 | 300 to 600 |  |
| CC(C)CN1CC(n2cc(Nc3ncc(C(F)(F)F)c(NCCCN4CCCCC4=O)n3)cn2)C1 [Example 12] | 25 to 100 |  | 300 to 600 |
| [2H]C([2H])([2H])N1CCC(n2cc(Nc3ncc(C(F)(F)F)c(NCCCN4CCCCC4=O)n3)c(C)n2)CC1 [Example 31] | 1 to 25 |  | 100 to 300 |
| Cc1nn(C2CCN(C)CC2)cc1Nc1ncc(C2CC2)c(NCCCN2CCCOCC2=O)n1 [Example 111] | > 500 | > 600 |  |
| CC(C)CN1CC(n2cc(Nc3ncc(C(F)(F)F)c(NCCCN4CCCC4=O)n3)cn2)C1 [Example 170] | 100 to 500 | 300 to 600 |  |
| C[C@@H](CCNc1nc(Nc2cnn(C3CCN(C)CC3)c2)ncc1Cl)N1CCCC1=O [Example 157] | > 500 | > 600 |  |
| O=C1CCCCN1CCCNc1nc(Nc2cnn(C3CCN(CC4CC4)CC3)c2)ncc1Cl [Example 3] | 1 to 25 |  | 10 to 100 |
| Cc1nn(C2CN(CC(C)C)C2)cc1Nc1ncc(Cl)c(NCCCN2CCCCC2=O)n1 [Example 38] | > 500 | > 600 |  |
| CC1(C)CCC(=O)N1CCCNc1nc(Nc2cnn(C3CCN(C4CC4)CC3)c2)ncc1C1CC1 [Example 69] | > 500 | > 600 |  |
| Cc1nn(C2CCNCC2)cc1Nc1ncc(I)c(NCCCN2CCCCC2=O)n1 [Example 48] | 1 to 25 |  | > 600 |
| Cc1nn(C2CCN(C)CC2)cc1Nc1ncc(Cl)c(NCCCN2CCOCCC2=O)n1 [Example 132] | 100 to 500 | > 600 |  |
| CC(C)CN1CC(n2cc(Nc3ncc(Br)c(NCCCN4CCCCC4=O)n3)cn2)C1 [Example 17] | 25 to 100 |  | 100 to 300 |
| Cc1nn(C2CN(CC(C)C)C2)cc1Nc1ncc(C(F)(F)F)c(NCCCN2CCCCC2=O)n1 [Example 23] | 25 to 100 | > 600 |  |
| Cc1nn(C2CCN(C)CC2)cc1Nc1ncc(C(F)(F)F)c(NCCCN2CCN(C)C2=O)n1 [Example 152] | 25 to 100 |  | 100 to 300 |
| CC(C)N1CCC(n2cc(Nc3ncc(C(F)(F)F)c(NCCCN4CCOCC4=O)n3)cn2)CC1 [Example 74] | 25 to 100 |  | > 600 |
| [2H]C([2H])([2H])C([2H])(N1CCC(n2cc(Nc3ncc(C(F)(F)F)c(NCCCN4CCCCC4=O)n3)cn2)CC1)C([2H])([2H])[2H] [Example 13] | 1 to 25 |  | 100 to 300 |
